The term IC50 denotes the midpoint of a concentration-inhibition curve. By IC90 is commonly meant the concentration needed for an effect of 90%.

The target of one assay is T1, rat RabGGT (Rattus norvegicus, UniProt Q08602+Q08603).
T1 construct: purchased Calbiochem 345855; host or cells: Sf9/baculovirus
T1 sequence (Q08602 1-567): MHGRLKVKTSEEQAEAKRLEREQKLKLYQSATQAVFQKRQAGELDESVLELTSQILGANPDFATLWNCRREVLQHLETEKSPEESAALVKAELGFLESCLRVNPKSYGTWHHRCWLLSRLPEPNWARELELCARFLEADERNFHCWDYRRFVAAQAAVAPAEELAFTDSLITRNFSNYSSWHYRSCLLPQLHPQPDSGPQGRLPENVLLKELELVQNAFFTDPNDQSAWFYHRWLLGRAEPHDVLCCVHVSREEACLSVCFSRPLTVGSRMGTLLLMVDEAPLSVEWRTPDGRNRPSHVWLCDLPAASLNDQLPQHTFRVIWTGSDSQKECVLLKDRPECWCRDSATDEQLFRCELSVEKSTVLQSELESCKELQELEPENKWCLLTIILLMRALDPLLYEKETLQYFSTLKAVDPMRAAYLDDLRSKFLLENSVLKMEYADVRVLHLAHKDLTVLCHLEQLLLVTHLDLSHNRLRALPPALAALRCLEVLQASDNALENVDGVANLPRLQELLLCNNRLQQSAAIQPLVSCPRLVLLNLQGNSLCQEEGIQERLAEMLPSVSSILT
T1 sequence (Q08603 1-331): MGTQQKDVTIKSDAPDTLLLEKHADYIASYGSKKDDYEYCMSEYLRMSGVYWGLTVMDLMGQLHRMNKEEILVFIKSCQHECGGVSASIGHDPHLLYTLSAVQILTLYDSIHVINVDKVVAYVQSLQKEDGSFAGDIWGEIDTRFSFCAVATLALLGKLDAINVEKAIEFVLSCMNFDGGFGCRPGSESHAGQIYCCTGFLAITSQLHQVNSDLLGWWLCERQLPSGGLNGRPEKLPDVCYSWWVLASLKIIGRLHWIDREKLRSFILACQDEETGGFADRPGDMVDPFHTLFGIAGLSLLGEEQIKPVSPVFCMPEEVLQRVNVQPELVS
In words: RabGGT filter binding assay: transfer of (3H)geranylgeranyl from 3H-GGPP to recombinant Rab3A. It is filed as biochemical. To be noted: for IC90/IC50: RabGGT inhibition; for RabGGT inhibition: rat RabGGT enzyme. The text has this:
The effect of compounds 7A through 7T on RabGGT activity was quantified using a filter binding assay that measures the transfer of (3H) geranylgeranyl groups (GG) from all-trans-(3H)geranylgeranyl pyrophosphate (3H-GGPP) to recombinant Rab3A protein (Shen & Seabra, 1996, JBC, 271 :3692; Armstrong et al., 1996, Methods in Enzymology 257:30). Modifications to published protocols are noted explicitly below.
Recombinant rat RabGGT, expressed using the Sf9/baculovirus system, was purchased from Calbiochem (cat. no. 345855). Recombinant unprenylated human Rab3A was obtained from Panvera.(cat. no. P2173). Human REβ-1, expressed in Sf9 cells, was obtained from Calbiochem (cat. no. 554000). Tritium labeled geranylgeranyl pyrophosphate was purchased from Amersham Pharmacia Biotech (15 Ci/mmol). Unlabeled GGPP was purchased from Sigma (cat. no. G-6025).
The reaction buffer contained 50 mM HEPES pH7.4, 5 mM MgCl2, 1 mM DTT, 1 mM Nβ-40. Solutions of RabGGT, Rab3A, REP-1, and GGPP were prepared in this reaction buffer. Final protein concentrations in the reaction mixture were modified from the published protocols, with the standard reaction mixture containing 2 μM Rab3A, 0.2 μM REP-1, 5 μM unlabeled GGPP, 0.5 μM labeled GGPP, and 10-50 nM RabGGT in a total volume of 20 μl. The specific activity of (3H)GGPP used in the assay was 3000 dpm/pmol.
Compounds were prepared as 50 mM stocks in DMSO and diluted to give an appropriate concentration for the assay as a 20% DMSO stock. 2 μl of the diluted compound stock was added to a 20 μl reaction to give a final DMSO concentration of 2% in the assay.
The order of addition of reagents was altered from the published protocols. Reaction mixtures were prepared by sequentially adding Rab3A and REP-1 proteins to the reaction buffer, followed by compound and RabGGT enzyme to a volume of 18 μl. Reactions were initiated by the addition of 2 μl of a solution that contained unlabeled and labeled GGPP. After a 30 minute incubation at 37° C., 1 ml of stop solution (1 volume of concentrated HCl acid with 9 volumes of ethanol) was added and mixed. The solution was then incubated at room temperature for 1 hour to completely precipitate proteins.
The precipitate was collected by vacuum filtration using a vacuum filtration manifold (Millipore model 1225) onto 25 mm GF/A filters (Whatman) that were prewetted with ethanol. The tubes were rinsed twice with 1 ml ethanol which was also poured over the filters. Each filter was subsequently washed three times with 2 mls of ethanol per wash, dried under vacuum, and then put in scintillation vials. Four milliliters of scintillation fluid was added and the radioactivity was quantified on a scintillation counter. Several types of blank reactions were conducted including withholding the enzyme, the substrate, or the accessory protein REP-1, or replacing the compound solution with a 20% DMSO solution. For the substrate titration experiment, the equimolar amounts of Rab3A and REP-1 were mixed and preincubated for 30 min at room temperature before addition of the enzyme.
The data was analyzed by non-linear regression analysis methods using the program PRIZM (GraphPad Software, Inc.). Inhibition constants were obtained by analyzing the data using the one site competition equation provided by the software. FIG. 7 presents a typical data series obtained for compound 7B using these methods.

Assay [1] relates to HCT-116 human colon tumor cells. In words: Compound-induced apoptosis in HCT-116 human colon tumor cells (microscopy for morphological markers). The class given is cell-based. The protocol: HCT-116 human colon tumor cells obtained from the American Type Culture Collection (ATCC) were grown in McCoy's 5A culture medium with 10% heat inactivated FBS, 1× penicillin/streptomycin, and 25 mM HEPES, in an incubator maintained at 37° C. with CO2 at 6-7% and humidity at 95%. Cells were treated with compounds using a dose range from 0.04 μM to 100 μM. After 48 hours they were examined by microscopy for signs of cell rounding, vaccuolation, and nuclear condensation. These are morphological markers associated with apoptosis, and are consistent with results obtained by performing an assay for nucleosomal DNA, or a TdT-mediated dUTP nick end labeling (TUNEL) assay.
The concentrations cited are the minimal concentration required to induce these morphological changes in 50% of the treated cells.

In assay [2] the target is Farnesyl Transferase (FT) (Homo sapiens, UniProt P49354+P49356). In words: Biochemical assay for inhibition of farnesyl transferase (FT). The protocol:
Biochemical assays for inhibition of FT were performed as described by Mann et al. (1995, Drug Dev. Res. 34: 121) with the modifications described by Ding et al. (1999, J. Med. Chem., 42:5241)

[3] abbreviates: recombinant rat RabGGT, Rab3A, REP-1, 30 minute at 37° C.
[4] abbreviates: HCT-116, 48 h, HCT116 cells, 48 hours, minimal concentration inducing apoptotic morphological changes in 50% of treated cells, read-out: 50% APOPTOTIC
Where [5] appears, read: HCT-116, minimum concentration required to achieve apoptosis of 50% of the HCT116 cells (Table 7), read-out: HCT116 50% apoptosis.
Setting [6] is: HCT-116, minimum concentration required to achieve apoptosis of 50% of the HCT116 cells (Table 8), read-out: HCT116 50% apoptosis.

Molecules are shown by their SMILES. Where two headings read alike, the source gives them in different places.

In the case of `Cn1cc(S(=O)(=O)N(Cc2ccsc2)C2Cc3cc(C#N)ccc3N(Cc3cncn3C)C2)cn1` (stereo not shown) [Compound 7N], on rat RabGGT, the IC90/IC50 was determined as 12. In addition, the half-inhibitory concentration (IC50) stood at 25 nM on rat RabGGT (Table 7), 25 nM on rat RabGGT (setting [3]) and 0.7 nM in assay [2]. The IC90 on rat RabGGT (setting [3]) came out at 309 nM; in assay [2], 9 nM. Besides, the EC50 in assay [1] (setting [4]) amounted to 3700 nM; in assay [1] (setting [5]), 3300 nM; in assay [1] (setting [6]), 3300 nM.

Regarding `C=C(C)CN(C1Cc2cc(C#N)ccc2N(Cc2cncn2C)C1)S(=O)(=O)N1CC=CC1` (stereo not shown) [Compound 7O], the IC90/IC50 on rat RabGGT worked out at 19. Besides, the IC50 on rat RabGGT (Table 7) worked out at 58 nM; on rat RabGGT (setting [3]) it was 58 nM; in assay [2], 1.4 nM. Also, the IC90 on rat RabGGT (setting [3]) came out at 1120 nM; in assay [2] it was 8 nM. For the same molecule, the EC50 in assay [1] (setting [4]), in assay [1] (setting [5]) and in assay [1] (setting [6]) was 10000 nM in each case.

Regarding `Cn1cncc1CN1CC(N(Cc2ccsc2)S(=O)(=O)c2ccccn2)Cc2cc(C#N)ccc21` (stereo not shown) [Compound 7P], the IC50 is 84 nM on rat RabGGT (Table 7), 84 nM on rat RabGGT (setting [3]) and 0.7 nM in assay [2]. Moreover, the concentration for an effect of 90% (IC90) worked out at 2160 nM on rat RabGGT (setting [3]) and 4 nM in assay [2]. Further, the EC50 in assay [1] (setting [4]), in assay [1] (setting [5]) and in assay [1] (setting [6]) was 25000 nM throughout.

Consider `Cn1cnc(S(=O)(=O)N(Cc2ccsc2)C2Cc3cc(C#N)ccc3N(Cc3cncn3C)C2)c1` (stereo not shown) [Compound 7Q], for which the 50% inhibitory concentration (IC50) on rat RabGGT (Table 7) came out at 47 nM; at rat RabGGT (setting [3]), 47 nM; in assay [2], 0.6 nM. Besides, the concentration for an effect of 90% (IC90) at rat RabGGT (setting [3]) stood at 2300 nM; in assay [2], 6 nM. The EC50 in assay [1] (setting [4]), in assay [1] (setting [5]) and in assay [1] (setting [6]) was 30000 nM each time.

Consider `Cn1cncc1CN1CC(N(CC(=O)OC(C)(C)C)S(=O)(=O)c2ccccn2)Cc2cc(C#N)ccc21` (stereo not shown) [Compound 7R], for which the IC90/IC50 on rat RabGGT is on record as 19. Further, the values for the concentration for half-maximal inhibition (IC50) (at rat RabGGT (Table 7); on rat RabGGT (setting [3]); in assay [2]) were 541 nM, 541 nM and 1.5 nM, respectively. In addition, the “RabGGT inhibition” value at rat RabGGT was “weaker inhibitors”. The results for the concentration for an effect of 90% (IC90) (at rat RabGGT (setting [3]); in assay [2]) were 10100 nM and 9 nM, respectively. For the same molecule, the EC50 in assay [1] (setting [4]), in assay [1] (setting [5]) and in assay [1] (setting [6]) was 30000 nM each time.

`Cn1cncc1CN1CC(NS(=O)(=O)c2ccccn2)Cc2cc(C#N)ccc21` (stereo not shown) [Compound 7S]: on rat RabGGT, the IC90/IC50 was found to be 19. Besides, the 50% inhibitory concentration (IC50) at rat RabGGT (Table 7) was determined as 73 nM; at rat RabGGT (setting [3]), 73 nM; in assay [2], 15.5 nM. The values for the IC90 (on rat RabGGT (setting [3]); in assay [2]) were 1400 nM and 255 nM, respectively. The EC50 in assay [1] (setting [4]), in assay [1] (setting [5]) and in assay [1] (setting [6]) was 50000 nM each time.

Regarding `Cc1nc(CN(C2Cc3cc(C#N)ccc3N(Cc3cncn3C)C2)S(=O)(=O)c2ccccn2)cs1` (stereo not shown) [Compound 7T], the IC90/IC50 on rat RabGGT is given as above 10. Further, the IC50 at rat RabGGT (Table 7) was determined as 1430 nM; at rat RabGGT (setting [3]) it was 1430 nM; in assay [2], 3.7 nM. The IC90 at rat RabGGT (Table 7) was above 15000 nM; on rat RabGGT (setting [3]), above 15000 nM; in assay [2] it was 48 nM. Besides, on rat RabGGT, the “RabGGT inhibition” value is reported as “weaker inhibitors”. Also, the EC50 in assay [1] (setting [4]), in assay [1] (setting [5]) and in assay [1] (setting [6]) was 90000 nM in each case.

(Values after US20040142888A1, “Modulators of RabGGT and methods of use thereof” (priority 2002, published 2004).)
